According to patent US20100003711A1, “Methods to identify therapeutic agents” (THE SCRIPPS RESEARCH INSTITUTE, priority 2005, published 2010):

Key:
neuronal cell lines = test: Cytotoxicity towards neuronal cell lines (similar procedures); assay type: cell-based
J774.1 macrophages = test: Lipid-loading assay (foam cell formation); assay type: cell-based, murine; conditions: LDL 100 μg/mL with 4a or 5a (20 μM), 72 h, unactivated J774.1 macrophages
Description: Lipid-loading assay (foam cell formation). J774.1 macrophages were incubated in ATCC-recommended media containing 10% fetal bovine serum under a controlled atmosphere of 5 or 7% CO2 at 37° C., in 8-well chamber slides. […] At termination, cells were washed twice with PBS (pH 7.4). The cells were then fixed with 6% (v/v) paraformaldehyde in PBS for 30 minutes, rinsed with propylene glycol for 2 minutes and lipids were stained with 5 mg/ml Oil Red 0 for 8 minutes. The cells were counterstained with Harris' hematoxylin for 45 seconds, and background staining was removed with 6% paraformaldehyde followed by washing once in PBS and once in tap water. Cover slips were mounted onto the glass slides using glycerol and the slide preparations were examined by light microscopy. The number of lipid-laden cells was scored out of a total of at least 100 cells counted in a single field in each slide, and expressed as a percentage of total cells. Photographs were taken at 100× magnification.

[1] = system: Class A scavenger receptor (SR-A); test: Scavenger receptor expression by flow cytometry, SR-A; assay type: cell-based, murine; conditions: cultured macrophages, compound in the absence of LDL
Description: Cell surface CD36 and SR-A were measured by flow cytometry using CD36 (BD Biosciences Pharmingen, San Diego, Calif.) and CD204 (Serotec, Oxford, UK) specific monoclonal antibodies. See Liao et al. (2000) Arterioscler. Thromb. Vasc. Biol. 20: 1968-75; Hu et al. (1996) Blood 87: 2020-28. Murine macrophage J774A.1 cells were serum-starved overnight in media with 0.5% BSA. Cells (1×10^6) treated with cholesterol ozonation products or cholesterol ozonation product complexed with LDL for specified times were then washed twice with PBS. […] Expression of either CD36 or SR-A was determined with CD36 (BD Biosciences Pharmingen, San Diego, Calif.) and CD204 (Serotec, Oxford, U.K.) specific monoclonal antibodies, respectively. After washing off the primary antibody, secondary antibodies were added, cells were washed again, then analyzed on a FACS calibur 2 (Becton Dickinson, Sparks, Md.) flow cytometer and analyzed by CellQuant software. Results were expressed as mean fluorescence intensity±standard error of the mean (SEM) of at least duplicate determinations. Significance was determined using a student two-tail t test, with (*) indicating p<0.05, and (**) indicating p<0.01 versus the control.

CD36 = test: Scavenger receptor expression by flow cytometry, CD36; assay type: cell-based, murine
Description: Cell surface CD36 and SR-A were measured by flow cytometry using CD36 (BD Biosciences Pharmingen, San Diego, Calif.) and CD204 (Serotec, Oxford, UK) specific monoclonal antibodies. See Liao et al. (2000) Arterioscler. Thromb. Vasc. Biol. 20: 1968-75; Hu et al. (1996) Blood 87: 2020-28. Murine macrophage J774A.1 cells were serum-starved overnight in media with 0.5% BSA. Cells (1×10^6) treated with cholesterol ozonation products or cholesterol ozonation product complexed with LDL for specified times were then washed twice with PBS. After harvesting the cells by scraping, they were fixed with 6% paraformaldehyde for 20 min; Cells were then resuspended in PBS containing 2% heat-inactivated FCS, 0.05% NaN3 and appropriate primary antibody, antibody conjugate or isotype control (1:100 dilution) and incubated on ice for 30 min. Expression of either CD36 or SR-A was determined with CD36 (BD Biosciences Pharmingen, San Diego, Calif.) and CD204 (Serotec, Oxford, U.K.) specific monoclonal antibodies, respectively. After washing off the primary antibody, secondary antibodies were added, cells were washed again, then analyzed on a FACS calibur 2 (Becton Dickinson, Sparks, Md.) flow cytometer and analyzed by CellQuant software. Results were expressed as mean fluorescence intensity±standard error of the mean (SEM) of at least duplicate determinations. Significance was determined using a student two-tail t test, with (*) indicating p<0.05, and (**) indicating p<0.01 versus the control.

[2] = system: murine macrophage J774A.1; test: Modified Boyden chamber migration (chemotaxis) assay; assay type: cell-based
Description: Chemotaxis and invasion assays were performed using a modified Boyden chamber migration assay. Zwirner et al. (1998) Eur. J. Immunol. 28: 1570-77; Wilkinson (1988) Methods Enzymol. 162: 38-50. Assays were set up on MultiScreen-MIC plates (Millipore, Billerica, Mass., USA) with polyvinylpyrrolidone-free polycarbonate membranes (5 μm pore size). Cells (murine macrophage J774A.1) were washed and resuspended in serum-free DMEM containing 0.2% BSA at 1×10^6 cells/ml. Fifty microliters of cells were added to the upper wells and 150 μl of chemoattractant in DMEM/0.2% BSA were added to the lower wells of the microchamber. Incubation time was for 4 h at 37° C. in an 8% CO2 atmosphere. After swiping cells off the upper side of the membrane, cells on the lower side were visualized by either staining and phase contrast microscopy, or fluorescence. Cells that had adhered to the membrane were stained using a DiffQuik staining kit (Dade Behring, Newark, Del.). Each experiment was performed in triplicate and the numbers of migrating cells were counted in five fields at ×200. Cells harvested with PBS-EDTA for fluorescent labeling were washed two times with PBS, then resuspended in serum-free medium containing calcein AM (5 μM). Cells were incubated for 30 min (37° C., 5% CO2) with gentle intermittent mixing. Calcein-labeled cells were washed twice, and calcein fluorescence ([…]) was measured using a SPECTRAmax™ GEMINI dual-scanning microplate spectrofluorometer. Fluorescence measurements were compared to a standard curve, generated by dilution of cells in PBS/BSA in 100 μl, dispensed into 96-well plates. Fluorescence was quantified as described above.

E-selectin (CD62E) = test: Endothelial adhesion molecule expression by ELISA, E-selectin; assay type: cell-based, human; conditions: HAAE-1, not complexed with LDL
Description: (§1) Endothelial cell surface adhesion molecule expression was measured by ELISA, using anti-human CD54 (ICAM-1), CD106 (VCAM-1) and CD62E (E-Selectin) antibodies (Leinco Technologies, Inc., St. Louis, Mo.). The ELISA method was modified from previously described procedures.
(§2) Cells were then incubated with antibodies to VCAM-1, E-selectin, or ICAM-1 diluted 1:400 in PBS containing 5% FCS at 37° C. for 30 min. Wells were washed two times with PBS, then incubated with horseradish peroxidase (HRP)-conjugated goat anti-mouse IgG (Southern Biotechnology Associates, Birmingham, Ala., USA) in PBS/5% FCS at 37° C. for 30 min. The wells were washed four times with PBS, then incubated with H2O2/3,3′,5,5′-tetramethyl-benzidine peroxidase substrate (Pierce Chemical, Rockford, Ill., USA) for 30 min in the dark. The reaction was stopped by adding 25 μl of 8 N H2SO4, and the plates read on a microplate reader, blanking on wells stained with only secondary antibody. Each assay was performed in triplicate and the data are reported as the mean±SEM as a percentage of the expression level of the vehicle. To study the effect of cholesterol ozonation product 5a concentration (5-50 μM) on E-selectin expression, the assay was performed in an identical fashion as described above, with each point being the mean±SEM of at least duplicate measurements.

VCAM-1 (CD106) = test: Endothelial adhesion molecule expression by ELISA, VCAM-1; assay type: cell-based, human; conditions: HAAE-1, not complexed with LDL
Description: as §1, §2

ICAM-1 (CD54) = test: Endothelial adhesion molecule expression by ELISA, ICAM-1; assay type: cell-based, human; conditions: HAAE-1, not complexed with LDL
Description: as §1, §2

U-937 monocytes cells = test: Monocyte adhesion to endothelial cell monolayers by fluorescence spectroscopy; assay type: cell-based; conditions: alone or in complex with LDL
THP-1 monocytes = test: Monocyte morphology changes (differentiation into macrophages); assay type: cell-based, human; conditions: 12.5 or 25 μM, up to 7 days
Description: THP-1 monocytes in suspension were plated in 8-well chambered slides. […] Media containing appropriate treatment compounds was replaced after 4 days. After 4 days treatment, morphologic changes of the adherent cells were assessed by phase-contrast microscopy and photographed using an Olympus Microfire digital camera.

[3] = Decrease of extractable 5a in stored plasma; assay type: in vitro ADME; conditions: stored human plasma, preliminary investigations
Description: Plasma samples were obtained from patients (n=8) who were scheduled to undergo carotid endarterectomy within 24 h. […] Control plasma samples were obtained from random patients (n=15) attending a general medical clinic and were analyzed 7 days after collection. In a typical procedure, plasma in EDTA (1 ml) was washed with dichloromethane (DCM, 3×1 mL). The combined organic fractions were evaporated in vacuo. The residue was dissolved in methanol (0.9 mL) and a solution of 2,4-dinitrophenyl hydrazine (100 μL, 0.01 M, Lancaster) and 1N HCl in ethanol was added. Nitrogen was bubbled through the solution for 5 min and then the solution was stirred for 2 h. The resultant solution was filtered through a 0.22 μm filter and the filtrate was analyzed by the HPLC assay vide supra.

LDL / apoB-100 = LDL / apoB-100 (Homo sapiens, UniProt P04114); test: Circular dichroism of LDL secondary structure; conditions: LDL 100 μg/ml with 10 μM compound, PBS pH 7.4, 37° C., up to 48 h; normal LDL ~40±2%
Description: Spectra were recorded in the peptidic range (200-260 nm). To increase the signal-to-noise ratio, multiple spectra (three) were averaged for each measurement. The deconvolution of the molar elipticity spectra for each measurement was performed using the CDPro suite of software (by Narasimha Sreerama from Colorado State University) on a Dell PC.

[4] = system: WI-L2 human B-lymphocyte line; test: LDH release cytotoxicity assay, WI-L2; assay type: cell-based; conditions: B-cell (WI-L2) cell line, concentration range of FIG. 6A (0-100 μM)
Description: (§3) Cytotoxicity assays. WI-L2 human B-lymphocyte line, HAAE-1 human abdominal aortic endothelial line, MH-S murine alveolar macrophage line, and J774A.1 murine tissue macrophage line were obtained from the ATCC. Human aortic endothelial cells (HAEC) and human vascular smooth muscle cells (VSMS) were obtained from Cambrex Bio Science. Jurkat E6-1T-lymphocytes were kindly provided by Dr. J. Kaye (The Scripps Research Institute). Cells were cultured in ATCC-recommended media with 10% fetal calf serum. Cells were incubated in a controlled atmosphere at 37° C., with 5 or 7% CO2. For lactate dehydrogenase (LDH) release assays, adherent cells were harvested either by addition of 0.05% trypsin/EDTA or by scraping. The cells obtained were seeded onto 96-well microtiter plates (25,000 cells/well) and allowed to recover for 24-48 h. […] Cytotoxicity was then determined by measuring lactate dehydrogenase (LDH) release from cells in culture. […] 100% Cytotoxicity was defined as the maximum amount of LDH released by dead cells as shown by trypan blue exclusion, or the highest amount of LDH detected upon lysis of cells by 0.9% Triton X-100. The IC50 values were determined by comparison of the raw duplicate data for concentration versus cytotoxicity (%) to non-linear regression analysis (Hill plot) using Graphpad v3.0 software for Macintosh. […]

[5] = system: T-lymphocyte cell line (Jurkat E6.1); test: LDH release cytotoxicity assay, Jurkat; assay type: cell-based; conditions: concentration range of FIG. 6B (0-100 μM)
Description: as §3

LDL / apoB-100, sequence (P04114 28-4563): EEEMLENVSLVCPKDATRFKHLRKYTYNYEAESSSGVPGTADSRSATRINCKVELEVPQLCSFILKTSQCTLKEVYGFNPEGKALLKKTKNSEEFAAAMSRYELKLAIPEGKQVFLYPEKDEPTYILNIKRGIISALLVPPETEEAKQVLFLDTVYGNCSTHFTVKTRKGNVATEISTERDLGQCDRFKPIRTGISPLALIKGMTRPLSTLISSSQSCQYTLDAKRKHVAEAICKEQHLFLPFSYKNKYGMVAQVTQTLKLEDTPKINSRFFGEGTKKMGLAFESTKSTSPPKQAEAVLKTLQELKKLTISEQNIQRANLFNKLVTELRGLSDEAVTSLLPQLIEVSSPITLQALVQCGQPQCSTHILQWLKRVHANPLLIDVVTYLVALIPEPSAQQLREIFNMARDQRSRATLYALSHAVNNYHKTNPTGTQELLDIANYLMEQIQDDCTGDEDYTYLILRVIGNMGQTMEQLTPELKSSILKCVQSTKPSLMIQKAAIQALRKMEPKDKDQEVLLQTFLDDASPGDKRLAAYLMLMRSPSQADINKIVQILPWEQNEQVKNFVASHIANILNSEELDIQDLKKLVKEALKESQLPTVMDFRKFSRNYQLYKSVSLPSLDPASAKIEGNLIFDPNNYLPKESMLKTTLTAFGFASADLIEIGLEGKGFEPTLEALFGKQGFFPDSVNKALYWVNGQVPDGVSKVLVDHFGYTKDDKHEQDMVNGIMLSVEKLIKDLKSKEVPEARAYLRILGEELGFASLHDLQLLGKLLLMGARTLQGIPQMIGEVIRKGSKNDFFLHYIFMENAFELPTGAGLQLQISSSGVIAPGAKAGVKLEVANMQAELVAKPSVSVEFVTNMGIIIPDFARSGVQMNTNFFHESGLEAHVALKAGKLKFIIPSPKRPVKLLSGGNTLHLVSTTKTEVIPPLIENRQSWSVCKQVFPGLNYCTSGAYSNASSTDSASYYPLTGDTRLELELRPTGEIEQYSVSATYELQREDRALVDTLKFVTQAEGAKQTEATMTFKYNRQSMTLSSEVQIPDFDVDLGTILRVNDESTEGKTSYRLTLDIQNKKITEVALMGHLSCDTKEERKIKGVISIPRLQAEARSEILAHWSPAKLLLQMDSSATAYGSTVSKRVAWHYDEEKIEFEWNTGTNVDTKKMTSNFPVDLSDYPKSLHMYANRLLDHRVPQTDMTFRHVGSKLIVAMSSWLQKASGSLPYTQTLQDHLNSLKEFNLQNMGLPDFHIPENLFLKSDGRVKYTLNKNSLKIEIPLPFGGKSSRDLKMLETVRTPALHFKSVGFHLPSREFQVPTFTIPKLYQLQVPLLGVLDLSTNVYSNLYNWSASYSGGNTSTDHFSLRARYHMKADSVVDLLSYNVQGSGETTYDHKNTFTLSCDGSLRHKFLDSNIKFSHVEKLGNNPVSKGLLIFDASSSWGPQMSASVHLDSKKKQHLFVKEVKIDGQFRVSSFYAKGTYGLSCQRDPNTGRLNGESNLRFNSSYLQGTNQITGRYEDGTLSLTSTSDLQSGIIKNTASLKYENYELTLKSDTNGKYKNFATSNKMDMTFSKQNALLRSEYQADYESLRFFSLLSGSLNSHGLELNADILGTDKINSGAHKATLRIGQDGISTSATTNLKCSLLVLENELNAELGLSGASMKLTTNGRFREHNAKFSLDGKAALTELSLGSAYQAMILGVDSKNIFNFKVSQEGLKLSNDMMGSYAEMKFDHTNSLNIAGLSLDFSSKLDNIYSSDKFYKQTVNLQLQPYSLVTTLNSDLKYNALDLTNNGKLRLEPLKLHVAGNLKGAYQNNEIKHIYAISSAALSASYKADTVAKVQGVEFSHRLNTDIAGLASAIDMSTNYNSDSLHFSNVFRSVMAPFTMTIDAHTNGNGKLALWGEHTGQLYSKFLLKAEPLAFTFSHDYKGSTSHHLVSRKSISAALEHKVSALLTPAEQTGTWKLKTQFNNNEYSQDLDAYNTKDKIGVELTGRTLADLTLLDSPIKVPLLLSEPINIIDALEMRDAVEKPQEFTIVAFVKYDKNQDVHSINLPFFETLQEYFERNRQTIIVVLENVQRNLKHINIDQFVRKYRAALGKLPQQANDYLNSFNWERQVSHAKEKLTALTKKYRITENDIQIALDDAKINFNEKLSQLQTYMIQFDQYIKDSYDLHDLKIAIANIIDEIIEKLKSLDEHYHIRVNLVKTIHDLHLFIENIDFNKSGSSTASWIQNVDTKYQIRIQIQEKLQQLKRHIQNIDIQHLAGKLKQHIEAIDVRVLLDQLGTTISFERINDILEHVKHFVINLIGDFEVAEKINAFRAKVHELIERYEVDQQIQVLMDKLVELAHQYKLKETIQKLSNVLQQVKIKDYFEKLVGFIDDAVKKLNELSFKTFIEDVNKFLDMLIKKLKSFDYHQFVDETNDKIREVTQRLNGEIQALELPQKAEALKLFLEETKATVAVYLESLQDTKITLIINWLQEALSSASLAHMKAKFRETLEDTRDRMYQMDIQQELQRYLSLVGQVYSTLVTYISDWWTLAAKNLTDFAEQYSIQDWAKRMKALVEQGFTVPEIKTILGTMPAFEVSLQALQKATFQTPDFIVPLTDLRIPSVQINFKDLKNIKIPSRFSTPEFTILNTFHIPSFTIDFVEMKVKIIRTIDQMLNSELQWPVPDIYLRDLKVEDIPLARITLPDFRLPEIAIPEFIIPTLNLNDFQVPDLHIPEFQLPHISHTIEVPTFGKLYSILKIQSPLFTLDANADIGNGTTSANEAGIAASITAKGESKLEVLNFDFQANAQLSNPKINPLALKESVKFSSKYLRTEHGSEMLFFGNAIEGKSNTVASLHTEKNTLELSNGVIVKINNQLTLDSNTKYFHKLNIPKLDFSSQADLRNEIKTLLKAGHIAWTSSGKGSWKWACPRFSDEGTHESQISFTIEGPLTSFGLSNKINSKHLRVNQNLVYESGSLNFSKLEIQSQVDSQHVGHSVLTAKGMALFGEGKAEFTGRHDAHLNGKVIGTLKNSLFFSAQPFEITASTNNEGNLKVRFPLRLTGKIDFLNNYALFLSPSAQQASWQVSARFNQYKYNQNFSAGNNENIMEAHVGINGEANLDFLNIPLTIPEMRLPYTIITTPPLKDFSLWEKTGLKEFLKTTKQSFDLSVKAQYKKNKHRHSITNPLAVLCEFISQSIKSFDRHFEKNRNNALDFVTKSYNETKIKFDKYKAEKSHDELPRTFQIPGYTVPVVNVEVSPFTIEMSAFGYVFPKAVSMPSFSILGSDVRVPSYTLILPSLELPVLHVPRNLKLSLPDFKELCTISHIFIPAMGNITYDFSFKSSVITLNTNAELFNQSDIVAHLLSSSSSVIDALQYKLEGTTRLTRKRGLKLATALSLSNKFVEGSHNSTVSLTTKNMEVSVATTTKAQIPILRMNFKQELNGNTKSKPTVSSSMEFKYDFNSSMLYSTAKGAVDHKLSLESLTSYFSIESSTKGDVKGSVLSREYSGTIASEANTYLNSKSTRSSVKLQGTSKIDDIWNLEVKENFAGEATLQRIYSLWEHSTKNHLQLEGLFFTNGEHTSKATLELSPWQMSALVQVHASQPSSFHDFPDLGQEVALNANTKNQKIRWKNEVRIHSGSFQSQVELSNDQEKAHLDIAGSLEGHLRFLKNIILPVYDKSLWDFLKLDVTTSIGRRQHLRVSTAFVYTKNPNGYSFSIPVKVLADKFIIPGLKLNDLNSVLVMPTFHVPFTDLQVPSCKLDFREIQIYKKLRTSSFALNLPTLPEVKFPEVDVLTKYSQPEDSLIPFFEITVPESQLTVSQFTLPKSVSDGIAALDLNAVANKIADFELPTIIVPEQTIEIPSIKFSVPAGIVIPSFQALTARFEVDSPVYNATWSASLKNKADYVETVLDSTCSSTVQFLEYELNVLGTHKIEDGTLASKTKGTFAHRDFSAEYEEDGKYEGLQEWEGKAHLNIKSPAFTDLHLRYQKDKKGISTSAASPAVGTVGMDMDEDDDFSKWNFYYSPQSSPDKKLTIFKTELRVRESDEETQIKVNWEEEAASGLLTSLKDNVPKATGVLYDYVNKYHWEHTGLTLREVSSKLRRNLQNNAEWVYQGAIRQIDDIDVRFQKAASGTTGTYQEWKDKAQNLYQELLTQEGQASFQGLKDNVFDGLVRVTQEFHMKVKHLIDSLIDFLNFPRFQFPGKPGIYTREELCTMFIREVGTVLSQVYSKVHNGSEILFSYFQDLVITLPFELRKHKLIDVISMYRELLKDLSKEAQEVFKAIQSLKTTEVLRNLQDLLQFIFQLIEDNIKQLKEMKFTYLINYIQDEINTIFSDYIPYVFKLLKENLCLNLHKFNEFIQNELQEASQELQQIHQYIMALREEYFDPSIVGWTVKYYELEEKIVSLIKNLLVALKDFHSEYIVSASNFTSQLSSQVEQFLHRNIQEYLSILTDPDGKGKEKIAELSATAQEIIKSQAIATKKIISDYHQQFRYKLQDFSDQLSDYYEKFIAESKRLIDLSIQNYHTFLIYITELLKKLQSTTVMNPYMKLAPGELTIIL

Compound: CC(C)CCC[C@@H](C)[C@H]1CCC2C3C(CC[C@@]21C)[C@@]1(C)CC[C@H](O)C[C@@]1(O)[C@@H]3C=O (stereo partly drawn) [5a, 3β-Hydroxy-5β-hydroxy-B-norcholestane-6βcarboxaldehyde]
- cytotoxicity towards neuronal cell lines (neuronal cell lines): cytotoxic
- lipid-loading of macrophages / foam cell formation (J774.1 macrophages): began lipid-loading and foam cells began to appear
- SR-A expression [1]: did not increase expression of either receptor
- CD36 expression (CD36; J774A.1, 25 μM compound complexed with LDL (100 μg/ml protein), 6 h): little or no effect
- CD36 expression (CD36; cultured macrophages, compound in the absence of LDL): did not increase expression of either receptor
- recruitment (migration) of macrophages ([2]; 0-25 μM, 4 h, P<0.001): dose-dependent recruitment of macrophages
- migration of macrophages ([2]; compound co-incubated with BSA): macrophage migration still occurs
- migration of macrophages ([2]; compound complexed with native LDL (100 μg/ml)): no significant migration
- selectin (E-selectin) expression (E-selectin (CD62E)): no effects
- integrin expression (VCAM-1) (VCAM-1 (CD106)): no effects
- integrin expression (ICAM-1) (ICAM-1 (CD54)): no effects
- adhesion of U-937 monocytes to endothelial cell monolayers, above that of LDL alone (U-937 monocytes cells): neither ozonolysis product 4a nor 5a, alone or in complex with LDL, nor CuOx-LDL significantly increased adhesion
- THP-1 monocyte differentiation into macrophages (adherence, morphology) (THP-1 monocytes): displayed hypertrophy, developed cytoplasmic vacuoles, and formed extended processes, all characteristic of mature macrophages
- decrease of the amount of 5a that can be extracted from plasma [3]: about 5 % per day
- a helical structure of LDL (LDL / apoB-100): ~20±2%

Compound: CC(C)CCC[C@@H](C)[C@H]1CC[C@H]2[C@@H]3CC=C4C[C@@H](O)CC[C@]4(C)[C@H]3CC[C@]12C [compound 3, cholesterol, reference compound]
- cytotoxicity [4]: No cytotoxicity
- cytotoxicity [5]: No cytotoxicity
- selectin (E-selectin) expression (E-selectin (CD62E)): no effects
- integrin expression (VCAM-1) (VCAM-1 (CD106)): no effects
- integrin expression (ICAM-1) (ICAM-1 (CD54)): no effects
- THP-1 monocyte differentiation into macrophages (adherence, morphology) (THP-1 monocytes): neither became adherent nor developed the aforementioned morphological changes
